In patent US8026235B1, “Pyridyl benzoxazine derivatives, pharmaceutical composition comprising the same, and use thereof” (Daewoong Pharmaceutical Co., Ltd., priority 2010, dated 2011):
pIC50: −log10 of the molar value. Read-outs that look alike come from different tables or passages of the source.

Experiments:
[1] = target: T1, human vanilloid-1 (TRPV1) (Homo sapiens, UniProt Q8NER1); assay: Inhibitory effect on capsaicin-stimulated calcium influx via a vanilloid receptor in hVR-1-HEK293 cells (Fluo-3/AM); assay type: cell-based; settings: 1 μM capsaicin
T1 construct: expressed in transfected cells; host or cells: HEK293 Tet-on (hVR-1-HEK293), expression induced with doxycycline
Source text: In order to confirm the antagonistic activities of the inventive compounds, inhibitory effects of the compounds on calcium influx were examined as follows.
hVR-1-HEK293 cell line is a human embryonic kidney (HEK) cell 293 Tet-on strain transformed with a human vanilloid-1 gene (pTRE2hyg-hVR-1 7.8 kb). The cell line can modulate the expression of TRPV1, depending on whether doxycycline, a derivative of tetracycline, is present or not.
In order to elucidate the inhibitory effect on calcium influx, the expression of TRPV1 was induced by culturing hVR-1-HEK293 cell line in a medium containing doxycycline for 2 days.
Specifically, hVR-1-HEK293 cells were cultured in a T75 flask to about 80% confluency, separated from the flask by treating with trypsin solution, and then collected by centrifugation. The cells were suspended in a medium containing 1 μg/mL of doxycycline, and the resulting suspension was diluted to a concentration of 2˜4×10^5 cells/mL 100 μL of the cell suspension was placed in each well of a 96-well black plate. The cells were cultured in 5% CO2 incubator at 37° C. for 2 days, and used for the following procedure.
The compounds, prepared in the Examples 1 to 9 of the present invention, were dissolved in dimethyl sulfoxide (DMSO) to obtain compound samples.
The cells prepared in 1) above were cultured at 37° C. for 90 min in a solution containing Fluo-3/AM, a fluorescent dye, as a calcium indicator so that the fluorescent dye was permeated into the cells. Then the cells were washed three times with D-PBS (Dulbecco's phosphate buffered saline) containing 10 mM HEPES (4-(2-hydroxyethyl)-1-piperazine ethanesulfonic acid) to remove the residual fluorescent dye. 193 μL of D-PBS was added to each well, followed by addition of various concentrations (0.015˜2000 nM) of the compounds. In order to stimulate calcium influx through a vanilloid receptor, the cells were treated with 1 μM of capsaicin. The inhibitory effect of various concentrations (0.015˜2000 nM) of compounds on intracellular calcium influx was measured by using a fluorimeter. Equivalent amounts of (R)-1-(2-bromophenyl)-3-(1-(5-(trifluoromethyl)pyridin-2-yl)pyrrolidin-3-yl)urea (also, referred to SB-705498) was used as a control group. The obtained data were input to the Hill equation represented by the following formula I and the values were analyzed: Intracellular calcium influx=(florescent intensity of experimental group−florescent intensity of background)/(florescent intensity of positive control−florescent intensity of background)×100 [Formula 1]
The inhibitory activities were evaluated from the obtained intracellular calcium influx values according to the following criteria.

[2] = test system: PBQ-induced writhing in ICR male mice; assay: Phenyl-p-quinone (PBQ)-induced writhing experiment using mice (effect on pain); assay type: in vivo; settings: oral, PBQ (0.02%) i.p. after 1 hour; for I.A. (inhibitory activity), % inhibition rate class: writhing counted for 10 min
Description: In order to evaluate the effect on pain of the compounds prepared in the Examples 1 to 9, behaviors such as twisting or writhing of body resulted from pain were verified by the phenyl-p-quinone (PBQ)-induced writhing experiment using mice.
5 week-old ICR male mice were used as experimental animals and PBQ (0.02%), as a chemical stimulator. The suspensions of 20 mg of the compounds of the present invention and an excipient such as Na-CMC (sodium carboxymethyl cellulose) in 10 mL of saline were used as test compounds. The test compounds were orally administered to the mice and after 1 hour, PBQ was intraperitoneally administrated in an amount of 10 mL per kg of body weight. The writhing number of each mouse was measured for 10 min starting from 5 min after the administration, and the analgesic effect was verified by counting the reduced number compared to the control group administered with only excipient and calculating the % inhibitory rate according to the following Formula 2. Also, equivalent amounts of SB-705498 were administered as a reference compound for the comparison of the effect on pain between SB-705498 and the compounds of the present invention. % inhibition rate=(writhing # of control group−writhing # of test group)/writhing # of control group×100 [Formula 2]
The inhibitory activity was evaluated from the obtained % inhibition rate, according to the following parameters.

[3] = test system: SD rats (Sprague-Dawley rats); assay: Assay for body temperature change (rectal temperature) in SD rats; assay type: in vivo; settings: single oral administration, rectal temperature up to 8 hr
Description: With the knowledge that some TRPV1 antagonists show the side effect of increasing the body temperature (Gavva et al., 2008, Pain, 136, 202-210), changes in body temperature associated with the compounds prepared in the Examples of the present invention were assessed.
7-week-old SD rats (Sprague-Dawley rats) were employed for this evaluation. Each of the compounds of the Examples was orally administered once at a dose of 10 ml/kg by compulsion. Before administration, the compounds were suspended, together with the excipient Na-CMC (sodium carboxymethyl cellulose), in saline 10 mL. Rectal temperatures of the rats were measured 1 hr and immediately (0 hr) prior to administration, and at the 30 min, 1 hr, 2 hr, 4 hr, 6 hr and 8 hr marks after administration using a thermometer (Shibaura Electronic Corporation, TD-300). The data were expressed as mean values ±S.E.M. Statistical data was analyzed by one way ANOVA, and statistical significance was analyzed in comparison with the excipient-treated control using Dunnett's t-test. Meanwhile, N-(4-(6-(4-(trifluoromethyl)phenyl)[…])benzo[d]thiazol-2-yl)acetamide (hereinafter referred to as “AMG-517”) was used at a dose of 3 mg/kg, as a positive control.

[4] = compounds 0.015˜2000 nM, read-out: I.A. (inhibitory activity), IC50 class

T1 sequence (Q8NER1 whole entry): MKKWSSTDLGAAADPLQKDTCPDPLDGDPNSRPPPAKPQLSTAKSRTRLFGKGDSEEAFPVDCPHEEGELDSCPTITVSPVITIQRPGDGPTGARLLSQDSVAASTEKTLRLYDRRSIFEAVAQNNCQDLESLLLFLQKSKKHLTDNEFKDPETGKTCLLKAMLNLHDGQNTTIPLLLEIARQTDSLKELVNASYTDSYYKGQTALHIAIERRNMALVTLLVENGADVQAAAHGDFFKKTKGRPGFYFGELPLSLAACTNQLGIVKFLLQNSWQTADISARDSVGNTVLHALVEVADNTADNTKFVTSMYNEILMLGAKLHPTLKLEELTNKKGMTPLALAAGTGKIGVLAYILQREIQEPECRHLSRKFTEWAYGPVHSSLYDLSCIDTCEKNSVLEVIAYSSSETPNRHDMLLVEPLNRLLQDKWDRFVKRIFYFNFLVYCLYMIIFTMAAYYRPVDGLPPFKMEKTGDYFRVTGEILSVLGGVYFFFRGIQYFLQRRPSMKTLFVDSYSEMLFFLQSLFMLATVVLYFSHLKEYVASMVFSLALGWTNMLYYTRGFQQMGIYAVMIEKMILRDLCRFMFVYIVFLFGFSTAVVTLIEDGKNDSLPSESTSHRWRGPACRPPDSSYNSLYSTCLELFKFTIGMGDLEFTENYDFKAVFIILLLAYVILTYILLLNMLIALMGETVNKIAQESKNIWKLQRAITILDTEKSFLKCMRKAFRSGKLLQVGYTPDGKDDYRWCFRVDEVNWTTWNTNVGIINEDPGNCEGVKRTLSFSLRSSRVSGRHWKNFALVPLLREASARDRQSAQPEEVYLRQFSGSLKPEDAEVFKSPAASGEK

Structure (SMILES)	pIC50 [1, 4]	Change in Body Temp. [3]	pIC50 ([1]; read-out: IC50 on calcium influx)	I.A. (inhibitory activity), % inhibition rate class [2]	% inhibition rate of writhing [2] [%]
COc1ccc(N2CCOc3c(-c4nc5ccc(C(C)(C)C)cc5[nH]4)cccc32)nc1 [Example 1, 8-(6-tert-Butyl-1H-benzo[d]imidazol-2-yl)-4-(5-methoxypyridin-2-yl)-3,4-dihydro-2H-benzo[b][1,4]oxazine]	6.30 to 7.00	+/− (±<0.5° C.)	–	++ (20˜50%)	–
COc1ccc(N2c3cccc(-c4nc5c(Br)cc(OC(F)(F)F)cc5[nH]4)c3OC[C@@H]2CO)nc1 [Example 5, (S)-(8-(4-bromo-6-(trifluoromethoxy)-1H-benzo[d]imidazol-2-yl)-4-(5-methoxypyridin-2-yl)-3,4-dihydro-2H-benzo[B][1,4]oxazin-3-yl)methanol]	> 7.70	+ (0.5^~1.0° C.)	–	+++ (51-80%)	–
COc1ccc(N2c3cccc(-c4nc5c(Br)cc(Br)cc5[nH]4)c3OC[C@@H]2CO)nc1 [Example 9, (S)-(8-(4,6-dibromo-1H-benzo[d]imidazol-2-yl)-4-(5-methoxypyridin-2-yl)-3,4-dihydro-2H-benzo[b][1,4]oxazin-3-yl)methanol]	6.30 to 7.00	+ (0.5^~1.0° C.)	–	++ (20˜50%)	–
COc1ccc(N2c3cccc(-c4nc5cc(Cl)c(Cl)cc5[nH]4)c3OC[C@@H]2CO)nc1 [Example 3, (S)-(8-(5,6-dichloro-1H-benzo[d]imidazol-2-yl)-4-(5-methoxypyridin-2-yl)-3,4-dihydro-2H-benzo[B][1,4]oxazin-3-yl)methanol]	7.00 to 7.70	+/− (±<0.5° C.)	–	++ (20˜50%)	–
COc1ccc(N2c3cccc(-c4nc5c(Cl)cc(C(F)(F)F)cc5[nH]4)c3OC[C@@H]2CO)nc1 [Example 8, (S)-(8-(4-chloro-6-(trifluoromethyl)-1H-benzo[d]imidazol-2-yl)-4-(5-methoxypyridin-2-yl)-3,4-dihydro-2H-benzo[b][1,4]oxazin-3-yl)methanol]	7.00 to 7.70	+/− (±<0.5° C.)	–	+++ (51-80%)	–
COc1ccc(N2c3cccc(-c4nc5c(Br)cc(C(F)(F)F)cc5[nH]4)c3OC[C@@H]2CO)nc1 [Example 7, (S)-(8-(4-bromo-6-(trifluoromethyl)-1H-benzo[d]imidazol-2-yl)-4-(5-methoxypyridin-2-yl)-3,4-dihydro-2H-benzo[b][1,4]oxazin-3-yl)methanol]	6.30 to 7.00	+ (0.5^~1.0° C.)	–	++ (20˜50%)	–
O=C(Nc1ccccc1Br)N[C@@H]1CCN(c2ccc(C(F)(F)F)cn2)C1 [SB-705498, (R)-1-(2-bromophenyl)-3-(1-(5-(trifluoromethyl)pyridin-2-yl)pyrrolidin-3-yl)urea, reference compound]	–	–	6.82 to 7.00	–	< 20

Continued, in another order:

pIC50 [1, 4]	Change in Body Temp. [3]	pIC50 ([1]; read-out: IC50 on calcium influx)	Structure (SMILES)	I.A. (inhibitory activity), % inhibition rate class [2]	% inhibition rate of writhing [2] [%]
7.00 to 7.70	+/− (±<0.5° C.)	–	COc1ccc(N2c3cccc(-c4nc5cc(F)c(Cl)cc5[nH]4)c3OC[C@@H]2CO)nc1 [Example 6, (S)-(8-(6-chloro-5-fluoro-1H-benzo[d]imidazol-2-yl)-4-(5-methoxypyridin-2-yl)-3,4-dihydro-2H-benzo[b][1,4]oxazin-3-yl)methanol]	+++ (51-80%)	–
7.00 to 7.70	+ (0.5^~1.0° C.)	–	COc1ccc(N2c3cccc(-c4nc5ccc(C(F)(F)F)cc5[nH]4)c3OC[C@@H]2CO)nc1 [Example 2, (S)-(4-(5-methoxypyridin-2-yl)-8-(6-(trifluoromethyl)-1H-benzo[d]imidazol-2-yl)-3,4-dihydro-2H-benzo[b][1,4]oxazin-3-yl)methanol]	++ (20˜50%)	–
7.00 to 7.70	+/− (±<0.5° C.)	–	COc1ccc(N2c3cccc(-c4nc5ccc(OC(F)(F)F)cc5[nH]4)c3OC[C@@H]2CO)nc1 [Example 4, (S)-(4-(5-methoxypyridin-2-yl)-8-(6-(trifluoromethoxy)-1H-benzo[d]imidazol-2-yl)-3,4-dihydro-2H-benzo[b][1,4]oxazin-3-yl)methanol]	++ (20˜50%)	–
